Data on five molecules can be found in US7470821B2, “Aldolase-inhibiting aromatic compounds” (Valorisation-Recherche, Limited Partnership, priority 2003, dated 2008).

In one experiment the target is T1, rabbit muscle aldolase (Oryctolagus cuniculus, UniProt P00883).
T1 sequence (P00883 1-364): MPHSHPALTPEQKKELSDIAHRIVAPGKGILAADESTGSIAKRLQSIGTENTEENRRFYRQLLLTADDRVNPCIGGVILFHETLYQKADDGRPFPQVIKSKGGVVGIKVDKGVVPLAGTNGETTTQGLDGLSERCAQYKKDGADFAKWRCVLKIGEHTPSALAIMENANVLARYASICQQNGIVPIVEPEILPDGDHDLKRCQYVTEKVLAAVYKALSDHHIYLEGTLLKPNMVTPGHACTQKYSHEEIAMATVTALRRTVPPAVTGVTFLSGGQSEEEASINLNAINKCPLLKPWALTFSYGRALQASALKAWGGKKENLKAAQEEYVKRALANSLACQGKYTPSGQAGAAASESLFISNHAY
As to conditions: cited from earlier work; for Ki: Blonski et al., 1997.

For experiment [1], the target named is T2, native aldolase from rabbit muscle (RM) (Oryctolagus cuniculus, UniProt P00883).
T2 construct: made in house
T2 sequence (P00883 1-364): T1 sequence (P00883 1-364)
The experiment is described as follows: Aldolase activity by coupled enzyme test (TIM/GDH), inactivation and reactivation kinetics. The class given is biochemical. The method, then:
Aldolase activity was measured using a coupled enzyme test system: the triose-phosphate isomerase and glycerol-3-phosphate deshydrogenase (TIM/GDH) system, following oxidation of the NADH (Boehringer-Mannheim, France) at 340 nm, by means of a SAFAS spectrophotometer preheated to 25° C. Testing began with the addition of the substrate (Fru(1.6)P2; […] in final concentration), to complete an aldolase solution created in a triethanolamine buffer (TEA buffer) (100 Mm TEA/HCl; 50 mM NaCl; 1 mM EDTA, pH 7.6; ionic strength 0.15), 0.42 mM of NADH, and containing both enzyme systems (10 μg/mL of GDH and 1 μg/mL of TIM) for a final volume of 1 mL. The construction, overexpression and purification of recombinant aldolase were carried out in accordance with Morris A. J. et al., 1993 (J. Biol. Chem., 265:1095-1100) and Berthiaume L. et al., 1993 (J. Biol. Chem., 268:10826-10835).
The substrate cleavage rate was determined by measuring the decrease in absorbance/minute at 340 nm. The aldolase was dialyzed overnight at 4° C. against a TEA buffer prior to use. The protein concentration was determined by spectrophotometry, using ε280=0.91 mL.mg^−1.cm^−1 as an extinction coefficient. Subunit concentration was determined on the basis of a molecular weight of 159,000 for an aldolase tetramer. • Kinetic Method:
In the extreme situation where k−2 approaches zero, a reversible slow-binding inhibitor may resemble an irreversible one directed toward the active site. In this situation, the equation eqn.(3) is used for this type of inhibition (Meloche H. P., 1967, Biochemistry, 6:2273-2280). The semi-inactivation time of the enzyme (t1/2) is defined as a function of the mutual inhibitor concentration and is graphically represented by a straight line crossing the Y-axis at […] and crossing the X-axis at −1/Ki. • Experimental Protocol:
Native aldolase (5 μM of subunits) is incubated in the presence of FHN-P (0.05-1 mM) in TEA buffer. Enzyme activity is analyzed as a function of time using 10 μl aliquot portions.
Inactivation kinetics follow pseudo-first-order kinetics, and kinetic parameters Ki and k2 are determined by using the equation eqn.(3). To determine the reactivation rate, aldolase (25 μM of subunits in the TEA buffer) is incubated with 500 μM of FHN-P until reaching 90% inactivation. Excess inhibitor is removed by ultrafiltration with a PM-30 Millipore membrane. The enzyme-inhibitor complex is incubated in the TEA buffer (15 μM of subunits at final concentration) containing hexitol-P2 (10 mM). Aliquot portions (10 μl) are removed at different times to measure aldolase activity.
Controls involve repeating the protocol without FHN-P. The reactivation process is analyzed as if it were a first-order reaction. • Monitored by UV-Visible Differential Spectroscopy.

Setting [2] is: rabbit muscle aldolase, read-out: dissociation constant (or inhibition constant) Ki.

Read-outs that look alike come from different tables or passages of the source.

As for `O=Cc1ccc(OP(=O)(O)O)cc1O` [2-hydroxybenzaldehyde-4-phosphate], on rabbit muscle aldolase (inhibitor concentration of around 200 μM), the “reduction of aldolase activity” value is 80%. Moreover, the Ki at rabbit muscle aldolase (reversible time-dependent inhibitor, read-out: global inhibition constant Ki*) is 35 ± 5 µM.

`O=Cc1ccc2cc(O)ccc2c1O` [DHNA, 1,6-dihydroxy-2-naphthaldehyde, reference compound]: in experiment [1] (250 μM, same conditions as Table 1), the “aldolase inactivation (in words)” value was “totally inactive”. For the same molecule, the Specific activity in experiment [1] (RM 0.2 mg/mL, compound 250 μM, TEA buffer pH 7.6, 80 min incubation, RM alone 12.5 ± 0.5) is 12.5 ± 0.5 Unit/mg. Turning to `O=Cc1ccc(OP(=O)(O)O)cc1` [HBA-P, benzaldehyde-4-phosphate], on rabbit muscle aldolase (setting [2]), the Ki was approximately 500 µM.

Consider `O=P(O)(O)Oc1ccc(OP(=O)(O)O)cc1` [HQN-P2], for which, at rabbit muscle aldolase (setting [2]), the Ki was approximately 135 µM. Regarding `O=P(O)(O)Oc1cccc(OP(=O)(O)O)c1` [RSN-P2], the Ki on rabbit muscle aldolase (setting [2]) was approximately 50 µM.
